Patent publication EP4624497A1, “PHOSPHOEN[…] PROBE, PREPARATION METHOD THEREFOR AND APPLICATION THEREOF” (priority 2022, dated 2024)

Legend:
Assay in all cases: phosphoenolpyruvate titration of purified optical probe (fluorescence ratio)
Type in all cases: binding
Conditions in all cases: phosphoenolpyruvate 0 to 10 mM, purified probe treated 10 minutes, ex 420/485 nm, em 528 nm
[1] = target: T1, Thermus thermophilus TtPFK optical probe 254/255-TtPFK-cpYFP variant, TtPFK I253V/Q254L/R255F/G256Y, cpYFP Y1H/N246F (Thermus thermophilus, UniProt P21777, form not given/G256Y/I253V/Q254L/R255F)
T1 construct: His-tag; made in house; host or cells: E. coli BL21 (DE3)
T1 sequence (P21777 other isoform, or with tags, fused parts or gaps, stated change not applied): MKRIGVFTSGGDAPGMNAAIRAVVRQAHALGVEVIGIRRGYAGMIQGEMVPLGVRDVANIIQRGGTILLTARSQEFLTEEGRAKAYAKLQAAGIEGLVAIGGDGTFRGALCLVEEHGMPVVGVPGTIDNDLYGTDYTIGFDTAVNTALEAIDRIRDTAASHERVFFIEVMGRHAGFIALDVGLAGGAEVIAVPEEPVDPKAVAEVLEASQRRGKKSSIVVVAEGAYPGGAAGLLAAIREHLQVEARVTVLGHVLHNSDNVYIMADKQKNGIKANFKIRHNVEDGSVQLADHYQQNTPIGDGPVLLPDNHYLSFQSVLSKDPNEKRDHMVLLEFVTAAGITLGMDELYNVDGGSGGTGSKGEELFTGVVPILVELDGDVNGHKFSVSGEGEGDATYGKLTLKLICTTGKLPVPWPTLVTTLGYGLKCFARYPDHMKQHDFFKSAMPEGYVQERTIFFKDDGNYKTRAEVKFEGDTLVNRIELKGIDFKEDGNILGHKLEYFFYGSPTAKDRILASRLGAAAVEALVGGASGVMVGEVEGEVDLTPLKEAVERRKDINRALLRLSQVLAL
Protocol: (§1) • 1. The expression vectors (for example, a phosphoenolpyruvate optical probe expression vector based on pCDF.) were transformed into BL21 (DE3) cells, incubated inverted overnight, and the clones were picked from the plates into 250 mL Erlenmeyer flasks, placed in a shaker at 37 °C and incubated at 220 rpm to OD=0.4-0.8, then 1/1000 (V/V) of IPTG (1 M) was added to induce expression at 18 °C for 24-36 hours. • 2. Upon completion of inducible expression, cells were harvested by centrifugation at 4000 rpm for 30 min, resuspended in 50 mM phosphate buffer and disrupted ultrasonically until the broth were clear, centrifuged at 9600 rpm at 4 °C for 20 min. • 3. The centrifuged supernatant was used to obtain protein by purification through a self-packed nickel column affinity chromatography column, and the protein obtained after nickel column affinity chromatography was further used to obtain protein dissolved in 100 mM HEPES buffer (pH 7.4). • 4. After purified proteins were subjected to SDS-PAGE, probes were diluted to a protein solution having a final concentration of 0.2-5 µM using assay buffer (100 mm HEPES, 100 mM NaCl, pH 7.4). Phosphoenolpyruvate was formulated as a stock solution at a final concentration of 50 mM with the assay buffer (100 mM HEPES, 100 mM NaCl, pH 7.4). • 5. 100 µl 1 µM of protein solution was taken, incubated at 37 °C for 10 min, phosphoenolpyruvate was added for titration, and the fluorescence intensity of 528 nm emission after 420 nm and 485 nm fluorescence excitation of the protein was measured. The fluorescence excitation and emission determination of the samples were done using a multifunctional fluorescence microplate reader. • 6. 100 µl 1 µM of protein solution was taken, incubated at 37 °C for 10 min, and phosphoenolpyruvate was added to determine the absorption and fluorescence spectra of the proteins. Determination of the absorption and fluorescence spectra of the samples was done by spectrophotometer and spectrofluorometer.
(§2) The recombinant plasmids of the mutation library were transformed into BL21 (DE3) to induce expression, and the purified probe protein was subjected to phosphoenolpyruvate-responsive screening, dividing the detection signal of the fusion fluorescent protein containing 2 mM phosphoenolpyruvate by that of the fusion fluorescent protein without phosphoenolpyruvate. […]

[2] = target: T2, Thermus thermophilus TtPFK optical probe 254/256-TtPFK-cpYFP variant, TtPFK I253S/Q254L/G256V/G257L, cpYFP Y1T/N246F (Thermus thermophilus, UniProt P21777, form not given/G256V/G257L/I253S/Q254L)
T2 construct: the numbering corresponds to the full length of the phosphoenolpyruvate-sensitive polypeptide; His-tag; made in house; host or cells: E. coli BL21 (DE3)
T2 sequence (P21777 other isoform, or with tags, fused parts or gaps, stated change not applied): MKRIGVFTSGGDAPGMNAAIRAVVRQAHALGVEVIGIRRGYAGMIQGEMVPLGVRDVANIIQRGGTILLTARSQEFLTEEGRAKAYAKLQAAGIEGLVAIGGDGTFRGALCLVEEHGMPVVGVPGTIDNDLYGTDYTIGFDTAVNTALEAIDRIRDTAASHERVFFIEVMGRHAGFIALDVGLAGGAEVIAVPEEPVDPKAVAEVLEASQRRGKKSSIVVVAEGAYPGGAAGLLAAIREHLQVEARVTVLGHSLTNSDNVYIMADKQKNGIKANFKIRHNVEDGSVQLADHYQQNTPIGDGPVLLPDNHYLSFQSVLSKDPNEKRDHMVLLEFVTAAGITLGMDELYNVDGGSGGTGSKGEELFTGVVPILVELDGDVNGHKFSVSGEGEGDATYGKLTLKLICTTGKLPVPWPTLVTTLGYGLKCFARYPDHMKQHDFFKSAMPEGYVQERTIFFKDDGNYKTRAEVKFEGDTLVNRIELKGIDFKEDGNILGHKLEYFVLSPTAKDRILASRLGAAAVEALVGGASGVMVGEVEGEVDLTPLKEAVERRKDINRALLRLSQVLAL
Protocol: as §1, §2

[3] = target: T3, Thermus thermophilus TtPFK optical probe 254/255-TtPFK-cpYFP variant, TtPFK N59H/I253K/Q254L/R255L/G256F, cpYFP Y1S (Thermus thermophilus, UniProt P21777, form not given/G256F/I253K/N59H/Q254L/R255L)
T3 construct: the numbering corresponds to the full length of the phosphoenolpyruvate-sensitive polypeptide; His-tag; made in house; host or cells: E. coli BL21 (DE3)
T3 sequence (P21777 other isoform, or with tags, fused parts or gaps N59H, form open): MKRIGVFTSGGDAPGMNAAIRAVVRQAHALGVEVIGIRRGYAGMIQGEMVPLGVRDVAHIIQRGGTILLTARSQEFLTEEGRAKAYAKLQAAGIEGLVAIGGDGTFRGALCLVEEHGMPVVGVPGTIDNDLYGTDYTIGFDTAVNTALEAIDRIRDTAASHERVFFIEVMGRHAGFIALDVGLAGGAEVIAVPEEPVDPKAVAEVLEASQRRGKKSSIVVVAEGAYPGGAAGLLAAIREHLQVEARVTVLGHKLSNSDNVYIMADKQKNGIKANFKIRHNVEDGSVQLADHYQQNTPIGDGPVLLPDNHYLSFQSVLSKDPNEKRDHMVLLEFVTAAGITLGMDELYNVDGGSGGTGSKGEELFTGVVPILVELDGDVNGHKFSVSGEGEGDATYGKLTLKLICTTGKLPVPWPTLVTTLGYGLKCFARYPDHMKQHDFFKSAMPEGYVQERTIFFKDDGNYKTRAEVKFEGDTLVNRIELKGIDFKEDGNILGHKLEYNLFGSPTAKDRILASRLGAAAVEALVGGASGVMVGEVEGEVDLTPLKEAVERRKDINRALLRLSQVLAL
Protocol: as §1
(§3) For the 254/255-TtPFK-cpYFP obtained in Example 2 and the 254/255-TtPFK-I253G/Q254L/R255L/G256F-cpYFP-Y1P, 254/255-TtPFK-I253K/Q254L/R255L/G256F-cpYFP-Y1S and 254/256-TtPFK-I253Q/Q254L/G256V/G257L-cpYFP-Y1T/N246F optical probes obtained in Example 6, amino acid were mutated at positions R21, R25, V54, R55, V57, A58, N59, I60, I61, R155, G186, R212, G213, K214, K215, S216 and L320 in the phosphoenolpyruvate binding pocket, and at positions R72, R163, R172 and R246 in the ATP binding pocket to adjust the affinity of the phosphoenolpyruvate optical probe to phosphoenolpyruvate and the substrate specificity. The probes were linearized by reverse PCR, and the sequences of the mutation sites were introduced into the primers. The obtained PCR products were subjected to homologous recombination to obtain plasmids containing the above site mutations. The mutant plasmids were transformed into BL21 (DE3) for induced expression, and the mutant probe proteins were purified for the phosphoenolpyruvate response test. The detection signal of the fusion fluorescent protein containing 2 mM phosphoenolpyruvate was divided by the detection signal of the fusion fluorescent protein without phosphoenolpyruvate. […]

[4] = target: T4, Thermus thermophilus TtPFK optical probe 254/255-TtPFK-cpYFP variant, TtPFK V54K/I253G/Q254L/R255L/G256F, cpYFP Y1P (Thermus thermophilus, UniProt P21777, form not given/G256F/I253G/Q254L/R255L/V54K)
T4 construct: the numbering corresponds to the full length of the phosphoenolpyruvate-sensitive polypeptide; His-tag; made in house; host or cells: E. coli BL21 (DE3)
T4 sequence (P21777 other isoform, or with tags, fused parts or gaps V54K, form open): as the sequence (P21777 other isoform, or with tags, fused parts or gaps N59H, form open) above, with V54K, H59N, K253G, S255P counted along it
Protocol: as §1, §3

[5] = target: T5, Thermus thermophilus TtPFK optical probe 254/256-TtPFK-cpYFP variant, TtPFK N59D/I253Q/Q254L/G256V/G257L, cpYFP Y1T/N246F (Thermus thermophilus, UniProt P21777, form not given/G256V/G257L/I253Q/N59D/Q254L)
T5 construct: His-tag; made in house; host or cells: E. coli BL21 (DE3)
T5 sequence (P21777 other isoform, or with tags, fused parts or gaps N59D, form open): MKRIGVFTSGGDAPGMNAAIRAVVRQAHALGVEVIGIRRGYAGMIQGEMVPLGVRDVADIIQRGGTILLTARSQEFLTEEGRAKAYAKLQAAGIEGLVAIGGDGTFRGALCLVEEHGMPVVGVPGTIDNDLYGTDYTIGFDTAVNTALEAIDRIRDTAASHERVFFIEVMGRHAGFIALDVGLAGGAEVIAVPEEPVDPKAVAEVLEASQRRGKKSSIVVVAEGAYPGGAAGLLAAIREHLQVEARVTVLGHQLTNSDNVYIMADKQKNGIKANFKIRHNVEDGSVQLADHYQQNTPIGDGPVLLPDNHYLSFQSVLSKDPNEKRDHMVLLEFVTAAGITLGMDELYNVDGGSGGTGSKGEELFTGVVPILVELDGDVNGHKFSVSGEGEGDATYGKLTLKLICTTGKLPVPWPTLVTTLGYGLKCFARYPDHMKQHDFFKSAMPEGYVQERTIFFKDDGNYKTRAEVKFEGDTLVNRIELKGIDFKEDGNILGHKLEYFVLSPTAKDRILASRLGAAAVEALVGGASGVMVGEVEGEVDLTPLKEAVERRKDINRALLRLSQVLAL
Protocol: as §1, §3

[6] = target: T6, Thermus thermophilus TtPFK optical probe 254/256-TtPFK-cpYFP variant, TtPFK V54Q/I253Q/Q254L/G256V/G257L, cpYFP Y1T/N246F (Thermus thermophilus, UniProt P21777, form not given/G256V/G257L/I253Q/Q254L/V54Q)
T6 construct: the numbering corresponds to the full length of the phosphoenolpyruvate-sensitive polypeptide; His-tag; made in house; host or cells: E. coli BL21 (DE3)
T6 sequence (P21777 other isoform, or with tags, fused parts or gaps V54Q, form open): as the sequence (P21777 other isoform, or with tags, fused parts or gaps N59D, form open) above, with V54Q, D59N counted along it
Protocol: as §1, §3

[7] = target: T7, Thermus thermophilus TtPFK optical probe 254/255-TtPFK-cpYFP variant, TtPFK V54Q/I253K/Q254L/R255L/G256F, cpYFP Y1S (Thermus thermophilus, UniProt P21777, form not given/G256F/I253K/Q254L/R255L/V54Q)
T7 construct: His-tag; made in house; host or cells: E. coli BL21 (DE3)
T7 sequence (P21777 other isoform, or with tags, fused parts or gaps V54Q, form open): as the sequence (P21777 other isoform, or with tags, fused parts or gaps N59H, form open) above, with V54Q, H59N counted along it
Protocol: as §1, §3

[8] = target: T8, Thermus thermophilus TtPFK optical probe 254/255-TtPFK-cpYFP variant, TtPFK V54Q/I253G/Q254L/R255L/G256F, cpYFP Y1P (Thermus thermophilus, UniProt P21777, form not given/G256F/I253G/Q254L/R255L/V54Q)
T8 construct: the numbering corresponds to the full length of the phosphoenolpyruvate-sensitive polypeptide; His-tag; made in house; host or cells: E. coli BL21 (DE3)
T8 sequence (P21777 other isoform, or with tags, fused parts or gaps V54Q, form open): as the sequence (P21777 other isoform, or with tags, fused parts or gaps N59H, form open) above, with V54Q, H59N, K253G, S255P counted along it
Protocol: as §1, §3

## C=C(OP(=O)(O)O)C(=O)O [phosphoenolpyruvate, Phosphoenolpyruvate]
[1]
  Kd: 81.7 µM
[2]
  Kd: 8.93 µM
[3]
  Kd: 87.7 µM
[4]
  Kd: 267 µM
[5]
  Kd: 374 µM
[6]
  Kd: 281 µM
[7]
  Kd: 328 µM
[8]
  Kd: 769 µM
